Results taken from patent US12568967B2, “Compositions comprising pyridine carboxylate herbicides with synthetic auxin herbicides or auxin transport inhibitors” (priority 2018, dated 2026).

How the values were obtained:
[1] = system: Polygonum convolvulus (wild buckwheat, POLCO); assay: Greenhouse postemergence trial POLCO; assay type: in vivo; details: for % visual injury, Obs: POLCO, 140 g/ha alone
Method: (§1) Seeds of the desired test plant species were planted in a 90:10% v/v (volume/volume) mixture of PRO-MIX® BX (Premier Tech Horticulture, Quakertown, PA, USA) and PROFILE® GREENS GRADE™ (Profile Products LLC, Buffalo Grove, IL, USA) planting mixture, which typically has a pH of 5.2 to 6.2 and an organic matter content of at least 50 percent, in plastic pots with a surface area of 103.2 square centimeters (cm^2). […] The plants were grown for 7-36 days (d) in a greenhouse with an approximate 14-hour (h) photo-period which was maintained at about 23° C. during the day and 22° C. during the night. Nutrients and water were added on a regular basis and supplemental lighting was provided with overhead metal halide 1000-Watt lamps as necessary. The plants were employed for testing when they reached the second or third true leaf stage.
(§2) Emulsifiable concentrates of each of each pyridine carboxylate herbicide (Compound A or Compound B) were prepared at 100 grams acid equivalent per liter (g ae/L). The emulsifiable concentrates also included a safener, cloquintocet-mexyl, at 120 grams active ingredient per liter (g ai/L), unless otherwise noted below. An aliquot of each emulsifiable concentrate was placed in a 25 mL glass vial and diluted with an aqueous mixture of 1.25% (v/v) ACTIROB® B esterified rapeseed oil (Bayer Crop Science, Research Triangle Park, NC, USA) or MSO® Concentrate with LECI-TECH® methylated soybean oil (Loveland Products, Loveland, CO, USA) to obtain concentrated stock solutions at the highest application rate for each herbicide, based upon a 12 milliliter (mL) application volume at a rate of 187 liters per hectare (L/ha). The concentrated stock solutions were further diluted with an aqueous mixture of 1.25% v/v ACTIROB® B or MSO® Concentrate with LECI-TECH® to obtain stock solutions at reduced application rates for each herbicide. Spray solutions of the herbicide combinations (Compound A or Compound B plus synthetic auxin herbicide or auxin transport inhibitor) were prepared by adding weighed amounts or aliquots of the synthetic auxin herbicide or auxin transport inhibitor to the stock solutions of Compound A or Compound B to form 12-mL spray solutions in two-way combinations.
(§3) The spray solutions were applied to the plant material with an overhead Mandel track sprayer equipped with 8002E nozzles calibrated to deliver 187 L/ha over an application area of 0.503 square meters (m^2) at a spray height of 18 inches (43 centimeters (cm)) above the average plant canopy. Control plants were sprayed in the same manner with the solvent blank. All pyridine carboxylate herbicide (component a) application rates are given as “g ae/ha” and all synthetic auxin herbicide or auxin transport inhibitor (component b) application rates are given as “g ai/ha.”
(§4) The treated plants and control plants were placed in a greenhouse as described above and watered by sub-irrigation to prevent wash-off of the test compounds. After 20-22 d, the condition of the test plants as compared with that of the control plants was determined visually and scored on a scale of 0 to 100 percent where 0 corresponds to no injury and 100 corresponds to complete kill.

[2] = system: Cirsium arvense (Canadian thistle, CIRAR); assay: Greenhouse postemergence trial CIRAR; assay type: in vivo; details: for % visual injury, Obs: 140 g/ha alone
Method: as §1, §2, §3, §4

[3] = system: Kochia scoparia (kochia, KCHSC); assay: Greenhouse postemergence trial KCHSC; assay type: in vivo; details: for % visual injury, Obs: 140 g/ha alone
[4] = system: Brassica napus (spring rape, BRSNN); assay: Greenhouse postemergence trial BRSNN; assay type: in vivo; details: diflufenzopyr 10 g/ha
[5] = system: Rumex obtusifolius (broad-leaf dock, RUMOB); assay: Greenhouse postemergence trial RUMOB; assay type: in vivo; details: for % visual injury, Obs: RUMOB, 140 g/ha alone
Method: as §1, §2, §3, §4

[6] = system: Abutilon theophrasti (velvetleaf, ABUTH); assay: Greenhouse postemergence trial ABUTH; assay type: in vivo; details: for % visual injury, Obs: ABUTH, 140 g/ha alone
[7] = system: Lolium multiflorum (Italian ryegrass, LOLMU); assay: Greenhouse postemergence trial LOLMU; assay type: in vivo; details: for % visual injury, Obs: LOLMU, 140 g/ha alone
Method: as §1, §2, §3, §4

[8] = system: Echinochloa crus-galli (barnyard grass, ECHCG); assay: Greenhouse postemergence trial ECHCG; assay type: in vivo; details: for % visual injury, Obs: ECHCG, 140 g/ha alone
Method: as §1, §2, §3, §4

[9] = system: Digitaria sanguinalis (large crabgrass, DIGSA); assay: Greenhouse postemergence trial DIGSA; assay type: in vivo; details: for % visual injury, Obs: DIGSA, 140 g/ha alone
Method: as §1, §2, §3, §4

[10] = system: Setaria faberi (giant foxtail, SETFA); assay: Greenhouse postemergence trial SETFA; assay type: in vivo; details: for % visual injury, Obs: SETFA, 140 g/ha alone
Method: as §1, §2, §3, §4

[11] = system: Oryza sativa (common rice, ORYSA); assay: Greenhouse postemergence trial ORYSA; assay type: in vivo; details: diflufenzopyr 10 g/ha
Method: as §1
Emulsifiable concentrates of each of each pyridine carboxylate herbicide (Compound A or Compound B) were prepared at 100 grams acid equivalent per liter (g ae/L). […]
as §4

[12] = system: Viola tricolor (wild pansy, VIOTR); assay: Greenhouse postemergence trial VIOTR; details: for % visual injury, Obs: VIOTR, 140 g/ha alone;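 for all read-outs here: greenhouse plants sprayed at second to third true leaf stage, injury rated visually after 20-22 d against solvent-blank sprayed controls, 0 meaning no injury and 100 complete kill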
[13] = system: Brassica napus (winter rape, BRSNW); assay: Greenhouse postemergence trial BRSNW; assay type: in vivo; details: Brassica napus, post-emergence, read-out: % visual injury Obs
Method: as §1, §2, §3, §4

[14] = system: Sinapis arvensis (wild mustard, SINAR); assay: Greenhouse postemergence trial SINAR; assay type: in vivo; details: Mutarda arvensis, post-emergence; SINAR; Aminopyralid 10 g/ha; read-out: % visual injury Obs
[15] = system: Salsola kali (Russian thistle, SASKR); assay: Greenhouse postemergence trial SASKR; assay type: in vivo; details: Salsola kali, post-emergence; SASKR; Aminopyralid 10 g/ha; read-out: % visual injury Obs;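 note: greenhouse plants sprayed at second or third true leaf stage, injury rated by eye after 20-22 d against solvent-blank controls, 0 meaning no injury, 100 complete kill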
[16] = system: Matricaria chamomilla (wild chamomile, MATCH); assay: Greenhouse postemergence trial MATCH; assay type: in vivo; details: Matricaria chamomilla, post-emergence; MATCH; Aminopyralid 10 g/ha; read-out: % visual injury Obs;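 note: greenhouse plants sprayed at second to third true leaf stage, injury rated by eye 20-22 d later versus solvent-blank controls on 0–100 scale, 0 no injury, 100 complete kill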
[17] = system: Triticum aestivum (spring wheat, TRZAS); assay type: in vivo
[18] = system: Hordeum vulgare (spring barley, HORVS); assay type: in vivo
[19] = system: Cyanus segetum (cornflower, CENCY); assay: Greenhouse postemergence trial CENCY; assay type: in vivo
[20] = system: Viola arvensis (field violet, VIOAR); assay: Greenhouse postemergence trial VIOAR; assay type: in vivo
Method: as §1, §2, §3, §4

[21] = system: Galium aparine (cleavers, GALAP); assay: Greenhouse postemergence trial GALAP; assay type: in vivo; details: c1-3 Compound A 7.5/10/15; c4 Aminopyralid 5; c5-7 A 7.5/10/15 + Aminopyralid 5 g/ha
Method: as §1, §2, §3, §4

[22] = system: Veronica hederifolia (ivyleaf speedwell, VERHE); assay: Greenhouse postemergence trial VERHE; assay type: in vivo
[23] = system: Papaver rhoeas (corn poppy, PAPRH); assay: Greenhouse postemergence trial PAPRH; assay type: in vivo
[24] = system: Veronica persica (bird's-eye speedwell, VERPE); assay: Greenhouse postemergence trial VERPE; assay type: in vivo
[25] = system: Papaver rhoeas (corn poppy), herbicide-resistant (PAPRH-R); assay: Greenhouse postemergence trial PAPRH-R; assay type: in vivo
[26] = system: Capsella bursa-pastoris (shepherd's purse, CAPBP); assay: Greenhouse postemergence trial CAPBP; assay type: in vivo
Method: as §1, §2, §3, §4

[27] = system: Stellaria media (chickweed, STEME); assay: Greenhouse postemergence trial STEME; assay type: in vivo; details: for % visual injury, Obs: STEME, 140 g/ha alone
Method: as §1, §2, §3, §4

[28] = system: Anthemis arvensis (field chamomile, ANTAR); assay: Greenhouse postemergence trial ANTAR; assay type: in vivo
[29] = system: Matricaria discoidea (pineapple weed, MATMT); assay: Greenhouse postemergence trial MATMT; assay type: in vivo
Method: as §1, §2, §3, §4

[30] = system: Matricaria inodora (false chamomile, MATIN); assay: Greenhouse postemergence trial MATIN; assay type: in vivo
[31] = system: Triticum aestivum (winter wheat, TRZAW); assay: Greenhouse postemergence crop phytotoxicity TRZAW; assay type: in vivo
[32] = system: Hordeum vulgare (winter barley, HORVW); assay: Greenhouse postemergence crop phytotoxicity HORVW; assay type: in vivo
[33] = system: Lamium purpureum (purple deadnettle, LAMPU); assay: Greenhouse postemergence trial LAMPU
[34] = system: Glycine max (volunteer soybean, GLXMA); assay: Greenhouse postemergence trial GLXMA; assay type: in vivo; details: GLXMA; 140 g/ha alone
[35] = system: Helianthus annuus (common sunflower, HELAN); assay: Greenhouse postemergence trial HELAN; assay type: in vivo; details: HELAN; 140 g/ha alone
[36] = system: Ipomoea hederacea (ivyleaf morningglory, IPOHE); assay: Greenhouse postemergence trial IPOHE; assay type: in vivo; details: IPOHE; 140 g/ha alone
[37] = system: Alopecurus myosuroides (blackgrass, ALOMY); assay: Greenhouse postemergence trial ALOMY; assay type: in vivo; details: ALOMY; 140 g/ha alone
Method: as §1
(§5) Emulsifiable concentrates of each of each pyridine carboxylate herbicide (Compound A or Compound B) were prepared at 100 grams acid equivalent per liter (g ae/L). The emulsifiable concentrates also included a safener, cloquintocet-mexyl, at 120 grams active ingredient per liter (g ai/L), unless otherwise noted below. An aliquot of each emulsifiable concentrate was placed in a 25 mL glass vial and diluted with an aqueous mixture of 1.25% (v/v) ACTIROB® B esterified rapeseed oil (Bayer Crop Science, Research Triangle Park, NC, USA) or MSO® Concentrate with LECI-TECH® methylated soybean oil (Loveland Products, Loveland, CO, USA) to obtain concentrated stock solutions at the highest application rate for each herbicide, based upon a 12 milliliter (mL) application volume at a rate of 187 liters per hectare (L/ha). The concentrated stock solutions were further diluted with an aqueous mixture of 1.25% v/v ACTIROB® B or MSO® Concentrate with LECI-TECH® to obtain stock solutions at reduced application rates for each herbicide. Spray solutions of the herbicide combinations (Compound A or Compound B plus synthetic auxin herbicide or auxin transport inhibitor) were prepared by adding weighed amounts or aliquots of the synthetic auxin herbicide or auxin transport inhibitor to the stock solutions of Compound A or Compound B to form 12-mL spray solutions in two-way combinations. […]
as §4

[38] = system: Avena fatua (wild oat, AVEFA); assay: Greenhouse postemergence trial AVEFA; assay type: in vivo; details: AVEFA; 140 g/ha alone
Method: as §1, §5, §4

[39] = system: Cyperus esculentus (nutsedge, CYPES); assay: Greenhouse postemergence trial CYPES; assay type: in vivo; details: CYPES; 140 g/ha alone
Method: as §1, §5, §4

[40] = system: Leptochloa chinensis (Chinese sprangletop, LEFCH); assay: Greenhouse postemergence trial LEFCH; assay type: in vivo; details: LEFCH; 140 g/ha alone
Method: as §1, §5, §4

[41] = system: Sorghum vulgare (grain sorghum, SORVU); assay: Greenhouse postemergence trial SORVU; assay type: in vivo; details: SORVU; 140 g/ha alone
Method: as §1, §5, §4

[42] = c1-3 Compound A 7.5/10/15, c4 Aminopyralid 5, c5-7 A 7.5/10/15 + Aminopyralid 5 g/ha
[43] = Papaver rhoeas, post-emergence, read-out: % visual injury Obs

SMILES: C/C(=N\NC(=O)Nc1cc(F)cc(F)c1)c1ncccc1C(=O)O [Diflufenzopyr]
- POLCO Obs (% visual injury) ([1]; diflufenzopyr 10 g/ha): 5%
- CIRAR Obs (% visual injury) ([2]; diflufenzopyr 10 g/ha): 10%
- KCHSC Obs (% visual injury) ([3]; diflufenzopyr 10 g/ha): 10%
- BRSNN Obs (% visual injury) [4]: 70%
- RUMOB Obs (% visual injury) ([5]; diflufenzopyr 10 g/ha): 8%
- ABUTH Obs (% visual injury) ([6]; diflufenzopyr 10 g/ha): 38%
- LOLMU Obs (% visual injury) ([7]; diflufenzopyr 10 g/ha): 8%
- ECHCG Obs (% visual injury) ([8]; diflufenzopyr 10 g/ha): 0%
- DIGSA Obs (% visual injury) ([9]; diflufenzopyr 10 g/ha): 0%
- SETFA Obs (% visual injury) ([10]; diflufenzopyr 10 g/ha): 20%
- ORYSA Obs (% visual injury) [11]: 8%
- VIOTR Obs (% visual injury) ([12]; diflufenzopyr 10 g/ha): 8%

SMILES: Nc1cc(Cl)nc(C(=O)O)c1Cl [Aminopyralid, aminopyralid, reference compound]
- plant injury at 10 g/ha [13]: 10%
- pest or weed control at 10 g/ha ([1]; Fallopia convolvulus, post-emergence, read-out: % visual injury Obs): 75%
- pest or weed control at 10 g/ha ([2]; Cirsium arvense, post-emergence, CIRAR, Aminopyralid 10 g/ha, read-out: % visual injury Obs): 60%
- pest or weed control at 10 g/ha [14]: 20%
- pest or weed control at 10 g/ha [15]: 20%
- pest or weed control at 10 g/ha ([3]; Bassia scoparia, post-emergence, KCHSC, Aminopyralid 10 g/ha, read-out: % visual injury Obs): 10%
- pest or weed control at 10 g/ha [16]: 10%
- % visual injury Obs ([17]; TRZAS, Aminopyralid 10 g/ha): 0%
- % visual injury (crop phytotoxicity) [17, 42]: 0%
- % visual injury Obs ([18]; HORVS, Aminopyralid 10 g/ha): 0%
- % visual injury (crop phytotoxicity) [18, 42]: 0%
- pest or weed control at 10 g/ha ([19]; Centaurea cyanus, post-emergence, read-out: % visual injury Obs): 65%
- % visual injury [19, 42]: 50%
- pest or weed control at 10 g/ha ([20]; Viola arvensis, post-emergence, read-out: % visual injury Obs): 10%
- % visual injury [20, 42]: 25%
- % visual injury [21]: 60%
- pest or weed control at 10 g/ha ([22]; Veronica hederifolia, post-emergence, read-out: % visual injury Obs): 25%
- % visual injury [22, 42]: 0%
- pest or weed control at 10 g/ha [23, 43]: 65%
- % visual injury [23, 42]: 30%
- pest or weed control at 10 g/ha ([24]; Veronica persica, post-emergence, read-out: % visual injury Obs): 10%
- % visual injury [24, 42]: 0%
- pest or weed control at 10 g/ha [25, 43]: 65%
- % visual injury [25, 42]: 50%
- pest or weed control at 10 g/ha ([26]; Capsella bursa-pastoris, post-emergence, read-out: % visual injury Obs): 0%
- % visual injury [26, 42]: 0%
- pest or weed control at 10 g/ha ([27]; Stellaria media, post-emergence, read-out: % visual injury Obs): 5%
- % visual injury [27, 42]: 0%
- pest or weed control at 10 g/ha ([28]; Anthemis arvensis, post-emergence, read-out: % visual injury Obs): 60%
- % visual injury [28, 42]: 10%
- pest or weed control at 10 g/ha ([29]; Matricaria discoidea, post-emergence, read-out: % visual injury Obs): 0%
- % visual injury [29, 42]: 0%
- pest or weed control at 10 g/ha ([30]; Tripleurospermum inodorum, post-emergence, read-out: % visual injury Obs): 60%
- % visual injury [30, 42]: 10%
- % visual injury Obs ([31]; TRZAW, Aminopyralid 10 g/ha): 0%
- % visual injury (crop phytotoxicity) [31, 42]: 0%
- % visual injury Obs ([32]; HORVW, Aminopyralid 10 g/ha): 0%
- % visual injury (crop phytotoxicity) [32, 42]: 0%
- pest or weed control at 10 g/ha ([33]; Lamium purpureum, post-emergence, read-out: % visual injury Obs): 10%
- % visual injury [33, 42]: 0%
- pest or weed control at 10 g/ha ([12]; Viola tricolor, post-emergence, read-out: % visual injury Obs): 10%
- % visual injury [12, 42]: 0%

SMILES: O=C(O)c1ccccc1C(=O)Nc1cccc2ccccc12 [Naptalam]
- plant injury at 140 g/ha [13]: 0%
- % visual injury, Obs [1]: 0%
- % visual injury, Obs ([2]; CIRAR): 0%
- % visual injury, Obs ([3]; KCHSC): 0%
- % visual injury, Obs [27]: 0%
- % visual injury, Obs [5]: 0%
- % visual injury, Obs [6]: 0%
- % visual injury, Obs [34]: 13%
- % visual injury, Obs [35]: 0%
- % visual injury, Obs [36]: 0%
- % visual injury, Obs [37]: 0%
- % visual injury, Obs [38]: 0%
- % visual injury, Obs [7]: 0%
- % visual injury, Obs [8]: 0%
- % visual injury, Obs [39]: 35%
- % visual injury, Obs [40]: 0%
- % visual injury, Obs [9]: 0%
- % visual injury, Obs [10]: 0%
- % visual injury, Obs [41]: 0%
- % visual injury, Obs [12]: 0%

SMILES: O=C(O)c1cc(I)cc(I)c1I [2,3,5-TIBA]
- plant injury at 140 g/ha [13]: 0%
- % visual injury, Obs [1]: 0%
- % visual injury, Obs ([2]; CIRAR): 0%
- % visual injury, Obs ([3]; KCHSC): 0%
- % visual injury, Obs [27]: 0%
- % visual injury, Obs [5]: 0%
- % visual injury, Obs [6]: 0%
- % visual injury, Obs [34]: 40%
- % visual injury, Obs [35]: 0%
- % visual injury, Obs [36]: 0%
- % visual injury, Obs [37]: 0%
- % visual injury, Obs [38]: 0%
- % visual injury, Obs [7]: 0%
- % visual injury, Obs [8]: 0%
- % visual injury, Obs [39]: 0%
- % visual injury, Obs [40]: 0%
- % visual injury, Obs [9]: 0%
- % visual injury, Obs [10]: 0%
- % visual injury, Obs [41]: 0%
- % visual injury, Obs [12]: 0%
